System: Prostate-specific antigen (PSA) production in LNCaP cells
Assay: PSA Assay (inhibition of PSA production in prostate cancer cells, ELISA)
Assay type: cell-based, human
Conditions: Homo sapiens, LNCaP, 72 h, read-out: LNCAP IC50 (uM), inhibition of PSA production, LNCaP cells, R1881 1 ng/ml, three days, seven point assay
Protocol: PSA Assay (Inhibition Test of the Compound of the Present Invention on Prostate-Specific Antigen (PSA) Production in Various Prostate Cancer Cells).
Androgen dependent LNCaP cells were purchased from the American Type Culture Collection (ATCC, Manassas, Va.). These cells were grown in RPMI 1640 medium supplemented with 10% fetal bovine serum (FBS), 100 U/mL penicillin, 100 μg/mL streptomycin, and 0.25 μg/mL amphotericin B. The cells were maintained at 37° C. and 5% CO2. LNCaP cells between passage 20 and 35 were used for experiments. LNCaP is a hormone sensitive cell line. For the PSA assay, human prostate cancer cells LNCaP were seeded in a 96-well plate at a concentration of 5000 cells/100 μl/well. On the following day, Methyltrienolone (R1881, AR agonist) (final concentration 1 ng/ml), test compounds or bicalutamide (Casodex®, AstraZeneca) (final concentration 0.005 to 20 μM) were added. Three days after the addition, the concentration of PSA in the supernatant of the culture solution was measured by ELISA. ELISAs for human PSA in culture medium were performed using the ultra-sensitive assay procedure and reagents in the Active™ PSA assay kit (Diagnostic Systems Laboratories Inc., Webster, Tex.). Culture medium and standards (200 μl/well) were incubated in antibody-coated plates for 2 h at room temperature on a Titer plate shaker at 500-600 rpm. Wells were then washed five times. The HRP conjugate was diluted 1:20 with assay buffer, and 100 μl was added to all wells. The plates were incubated for 30 min at room temperature on the shaker and washed as before, and 100 μl TMB (3,3′,5,5′-tetramethylbenzidine, 0.4 g/l) was added. The plates were incubated for 10 min on the shaker, and the reaction was terminated with 100 μl stop solution. The plates were read using a plate reader at 450 nm with a 650 nm reference filter. PSA levels were normalized for differences in growth of LNCaP cells following various treatments as determined by the MTS assay. IC50 of PSA was calculated based on a seven point assay (concentrations of tested compound) and expressed as micromolar (uM).

## CNC(=O)CCCc1ccc(N2C(=S)N(c3ccc(C#N)c(C(F)(F)F)c3F)C(=O)C23CCC3)cc1 [Example 10, 4-(4-(7-(4-cyano-2-fluoro-3-(trifluoromethyl)phenyl)-8-oxo-6-thioxo-5,7-diazaspiro[3.4]octan-5-yl)phenyl)-N-methylbutanamide]
  IC50: 0.42 µM

## N#Cc1ccc(N2C(=O)C3(CCC3)N(c3ccc(CCCc4ncco4)nc3)C2=S)c(F)c1C(F)(F)F [Example 65, 3-Fluoro-4-{5-[6-(3-oxazol-2-yl-propyl)-pyridin-3-yl]-8-oxo-6-thioxo-5,7-diaza-spiro[3.4]oct-7-yl}-2-trifluoromethyl-benzonitrile]
  IC50: 0.6 µM

## COc1c(C#N)ccc(N2C(=O)C(C)(C)N(c3ccc(CCCc4ncc[nH]4)cc3)C2=S)c1F [Example 21, 3-Fluoro-4-(3-{4-[3-(1H-imidazol-2-yl)-propyl]-phenyl}-4,4-dimethyl-5-oxo-2-thioxo-imidazolidin-1-yl)-2-methoxy-benzonitrile]
  IC50: 1.83 µM

## CC1(C)C(=O)N(c2cc(C(F)(F)F)c(C#N)cc2F)C(=S)N1c1ccc(CCCc2ncc[nH]2)c(F)c1 [Example 60, 4-(3-(4-(3-(1H-imidazol-2-yl)propyl)-3-fluorophenyl)-4,4-dimethyl-5-oxo-2-thioxoimidazolidin-1-yl)-5-fluoro-2-(trifluoromethyl)benzonitrile]
  IC50: 3.3 µM

## CNC(=O)CCCc1ccc(N2C(=S)N(c3ccc(C#N)c(Cl)c3F)C(=O)C23CCC3)cc1 [Example 11, 4-(4-(7-(3-chloro-4-cyano-2-fluorophenyl)-8-oxo-6-thioxo-5,7-diazaspiro[3.4]octan-5-yl)phenyl)-N-methylbutanamide]
  IC50: 0.54 µM

## CN(C)C(=O)CCCc1ccc(N2C(=S)N(c3ccc(C#N)c(Cl)c3F)C(=O)C2(C)C)cc1 [Example 14, 4-{4-[3-(3-Chloro-4-cyano-2-fluoro-phenyl)-5,5-dimethyl-4-oxo-2-thioxo-imidazolidin-1-yl]-phenyl}-N,N-dimethyl-butyramide]
  IC50: 0.69 µM

## CC1(C)C(=O)N(c2ccc(C#N)c(C(F)(F)F)c2F)C(=S)N1c1ccc(CCCC(=O)N2CCOCC2)c(F)c1 [Example 58, 3-fluoro-4-(3-(3-fluoro-4-(4-morpholino-4-oxobutyl)phenyl)-4,4-dimethyl-5-oxo-2-thioxoimidazolidin-1-yl)-2-(trifluoromethyl)benzonitrile]
  IC50: 0.53 µM

## CNC(=O)CCCc1ccc(N2C(=S)N(c3ccc(C#N)c(Cl)c3F)C(=O)C2(C)C)cc1 [Example 7, 4-(4-(3-(3-chloro-4-cyano-2-fluorophenyl)-5,5-dimethyl-4-oxo-2-thioxoimidazolidin-1-yl)phenyl)-N-methylbutanamide]
  IC50: 0.65 µM

## COc1c(C#N)ccc(N2C(=O)C(C)(C)N(c3ccc(CCCC(=O)N(C)C)cc3)C2=S)c1F [Example 13, 4-{4-[3-(4-Cyano-2-fluoro-3-methoxy-phenyl)-5,5-dimethyl-4-oxo-2-thioxo-imidazolidin-1-yl]-phenyl}-N,N-dimethyl-butyramide]
  IC50: 1.06 µM

## N#Cc1ccc(N2C(=O)C3(CCC3)N(c3ccc(CCCC(=O)N4CC(O)C4)c(F)c3)C2=S)c(F)c1C(F)(F)F [Example 61, 3-Fluoro-4-(5-{3-fluoro-4-[4-(3-hydroxy-azetidin-1-yl)-4-oxo-butyl]-phenyl}-8-oxo-6-thioxo-5,7-diaza-spiro[3.4]oct-7-yl)-2-trifluoromethyl-benzonitrile]
  IC50: 0.19 µM

## CN1CCN(C(=O)CCCc2ccc(N3C(=S)N(c4ccc(C#N)c(C(F)(F)F)c4F)C(=O)C3(C)C)cc2F)CC1 [Example 53, 3-Fluoro-4-(3-{3-fluoro-4-[4-(4-methyl-piperazin-1-yl)-4-oxo-butyl]-phenyl}-4,4-dimethyl-5-oxo-2-thioxo-imidazolidin-1-yl)-2-trifluoromethyl-benzonitrile]
  IC50: 0.41 µM
